A word on the AC50: it is the midpoint of the concentration-response curve, whichever way the signal moves. The IC50 is the concentration needed to halve the response being measured.

The source made the active and inactive calls.

A short description of assay [1]: P. falciparum Dd2 growth inhibitors, dose response, SYBR Green, cherry-picked samples (AID 1159567). Format: functional, cell-based.
Assay [2] is described as follows: viability of uninfected HEp-2 cells – cell-based, HTS, cytotoxicity control for RSV inhibitor project, dose response (AID 2410). In kind it is functional. To be noted: human respiratory syncytial virus.
A short description of assay [3]: microbe, parasite or virus in culture. Format: functional. To be noted: Mycobacterium tuberculosis.
Assay [4] deals with BJ. The assay can be described thus: BJ-TERT fibroblast viability loss – cell-based, RAS-independent, luminescence, dose response (AID 1933). Format: functional. To be noted: Homo sapiens.
The test system of assay [5] is BJ. The assay can be described thus: cells. To be noted: Homo sapiens. In kind it is functional, cell-based.
The subject of assay [6] is BJ. The experiment in a line: BJ-TERT-LT-ST fibroblast viability loss – cell-based, RAS-independent, luminescence, dose response (AID 1935).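 Note: BJ fibroblasts immortalized with TERT plus LT and ST oncogenes.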 Format: functional. To be noted: Homo sapiens.
Assay [7] can be described thus: DRD fibroblast viability loss – cell-based, non-viral oncogenic, luminescence, dose response (AID 1934). To be noted: Homo sapiens. In kind it is functional.
In assay [8] the target is T1, Rac GTPase-activating protein 1 (Homo sapiens, UniProt Q9H0H5).
T1 sequence (Q9H0H5 whole entry): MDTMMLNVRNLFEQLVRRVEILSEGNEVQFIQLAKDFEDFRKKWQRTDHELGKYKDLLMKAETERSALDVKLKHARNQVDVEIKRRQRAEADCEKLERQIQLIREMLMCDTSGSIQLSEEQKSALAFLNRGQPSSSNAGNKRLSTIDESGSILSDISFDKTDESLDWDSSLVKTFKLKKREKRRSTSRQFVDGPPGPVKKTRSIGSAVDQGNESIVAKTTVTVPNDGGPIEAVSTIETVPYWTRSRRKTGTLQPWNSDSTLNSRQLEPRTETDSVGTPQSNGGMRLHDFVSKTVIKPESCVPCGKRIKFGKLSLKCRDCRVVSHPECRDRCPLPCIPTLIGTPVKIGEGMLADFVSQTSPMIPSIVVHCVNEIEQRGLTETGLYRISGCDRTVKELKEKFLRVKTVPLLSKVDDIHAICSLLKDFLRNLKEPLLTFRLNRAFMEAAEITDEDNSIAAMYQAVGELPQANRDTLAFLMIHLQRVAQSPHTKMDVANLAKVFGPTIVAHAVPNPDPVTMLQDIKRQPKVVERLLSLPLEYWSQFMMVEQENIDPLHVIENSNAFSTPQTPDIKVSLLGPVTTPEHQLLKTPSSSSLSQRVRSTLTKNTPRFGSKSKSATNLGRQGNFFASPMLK
The experiment in a line: blockers of MgcRacGAP-driven Rac1 GTP hydrolysis – biochemical, ADP Hunter fluorescence, primary and confirmatory, confirmation (AID 624330). In kind it is functional.

Assay [9] addresses T2, Corticotropin-releasing factor receptor 2/Corticotropin-releasing factor-binding protein (Homo sapiens, UniProt P24387+Q13324).
T2 sequence (Q13324 whole entry): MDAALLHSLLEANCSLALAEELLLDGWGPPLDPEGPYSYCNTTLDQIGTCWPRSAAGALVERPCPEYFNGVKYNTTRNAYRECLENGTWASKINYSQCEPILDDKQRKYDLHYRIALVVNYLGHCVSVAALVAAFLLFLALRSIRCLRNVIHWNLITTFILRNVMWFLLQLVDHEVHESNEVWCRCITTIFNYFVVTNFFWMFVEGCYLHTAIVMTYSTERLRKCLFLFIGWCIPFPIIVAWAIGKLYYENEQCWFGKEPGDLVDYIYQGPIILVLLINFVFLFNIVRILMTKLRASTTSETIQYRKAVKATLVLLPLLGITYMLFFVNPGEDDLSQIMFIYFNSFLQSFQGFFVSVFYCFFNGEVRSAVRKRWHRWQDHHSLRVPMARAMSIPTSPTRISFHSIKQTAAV
T2 sequence (P24387 whole entry): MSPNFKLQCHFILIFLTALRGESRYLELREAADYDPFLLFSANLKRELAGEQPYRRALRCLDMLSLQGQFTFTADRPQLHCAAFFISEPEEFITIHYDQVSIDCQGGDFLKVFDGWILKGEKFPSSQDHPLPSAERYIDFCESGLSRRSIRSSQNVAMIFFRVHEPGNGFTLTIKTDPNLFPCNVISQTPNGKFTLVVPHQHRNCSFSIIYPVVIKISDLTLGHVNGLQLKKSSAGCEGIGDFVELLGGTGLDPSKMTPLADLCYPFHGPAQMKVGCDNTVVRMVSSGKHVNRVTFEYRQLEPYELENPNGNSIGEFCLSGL
The assay can be described thus: activators of CRF receptor 2 with binding protein – uHTS hits, confirmation (AID 602473). In kind it is functional. To be noted: read-out: EC50_Mean.

Assay [10] relates to Streptococcus sp. 'group A'. The experiment in a line: Streptococcus pyogenes SK(-)GAS viability under kanamycin – luminescence, BacTiterGlo, confirmation, counter-screen for streptokinase expression inhibitor project, dose response (AID 1900). Format: functional, organism-based. In general terms: A counterscreen serves to expose hits that act by an unwanted route or on another target.

Another assay concerns the target T3, Streptokinase A (Streptococcus pyogenes serotype M1, UniProt P10520).
T3 sequence (P10520 whole entry): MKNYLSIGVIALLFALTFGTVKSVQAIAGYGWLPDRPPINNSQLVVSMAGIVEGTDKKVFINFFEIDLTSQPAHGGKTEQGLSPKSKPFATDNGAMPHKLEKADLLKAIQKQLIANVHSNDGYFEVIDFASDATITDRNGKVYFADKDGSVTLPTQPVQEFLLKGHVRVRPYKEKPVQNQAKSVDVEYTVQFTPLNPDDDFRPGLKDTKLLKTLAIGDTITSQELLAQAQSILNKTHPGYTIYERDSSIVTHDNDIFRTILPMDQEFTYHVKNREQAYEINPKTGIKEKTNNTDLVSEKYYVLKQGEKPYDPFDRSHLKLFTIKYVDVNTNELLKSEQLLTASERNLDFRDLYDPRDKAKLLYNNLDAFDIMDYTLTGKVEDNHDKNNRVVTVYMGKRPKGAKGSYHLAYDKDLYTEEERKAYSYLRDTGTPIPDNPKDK
The experiment in a line: viability-normalized secreted streptokinase activity reduction – plasminogen activation absorbance, OD405, dose response (AID 1914).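 Note: secreted streptokinase activity via plasminogen activation per viability signal from cell pellet.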 Format: functional, Streptococcus pyogenes M1 GAS.

The next assay relates to Streptococcus. The assay can be described thus: GAS UMAA2166 growth inhibition – luminescence, BacTiterGlo, counter-screen for streptokinase expression inhibitor project, dose response (AID 1915).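 Note: potency for reduction of bacterial viability or growth.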 Format: functional, organism-based.
The subject of the next assay is INS1. The assay can be described thus: INS-1E survival protection against cytokine death – cell-based, luminescence, retest, dose response (AID 449756).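 Note: cell death triggered by IL-1 beta plus TNF-alpha plus IFN-gamma mixture; protective hits raise ATP signal compared with cytokine alone wells.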 In kind it is functional. To be noted: Rattus norvegicus.
For a further assay, the target named is Cytochrome P450 3A4 (Homo sapiens, UniProt P08684).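 Note: CYP3A4 tested as one member of a cytochrome P450 panel screen.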
Chain of Cytochrome P450 3A4 (P08684 whole entry): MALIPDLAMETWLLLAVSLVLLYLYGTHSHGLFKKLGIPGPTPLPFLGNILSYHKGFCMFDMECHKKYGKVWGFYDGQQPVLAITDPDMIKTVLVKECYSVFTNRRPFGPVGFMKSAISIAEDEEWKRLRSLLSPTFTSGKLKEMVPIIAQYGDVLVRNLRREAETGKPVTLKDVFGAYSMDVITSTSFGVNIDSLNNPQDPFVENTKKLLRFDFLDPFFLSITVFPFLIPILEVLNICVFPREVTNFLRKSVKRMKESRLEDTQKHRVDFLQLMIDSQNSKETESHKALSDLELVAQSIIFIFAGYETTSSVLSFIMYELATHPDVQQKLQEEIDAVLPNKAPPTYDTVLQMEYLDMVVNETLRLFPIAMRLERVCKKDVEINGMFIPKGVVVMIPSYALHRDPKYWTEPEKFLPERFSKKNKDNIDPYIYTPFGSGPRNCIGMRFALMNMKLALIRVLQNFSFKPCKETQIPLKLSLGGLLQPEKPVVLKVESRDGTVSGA
A further assay in a line: cells. In kind it is functional.
Assay [11] can be described thus: Trypanosoma cruzi growth suppression in host cells – NIH3T3 host cells, beta-gal luminescence, confirmation (AID 2044).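 Note: intracellular parasites grown in NIH/3T3 mouse fibroblasts as host cells; luminescent beta-galactosidase reporter signal from transgenic T. cruzi replicating inside host cells; inhibitors lower the luminescence signal.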 Format: functional, cell-based.
A short description of assay [12]: NIH3T3 cell viability loss – ATP luminescence, mouse fibroblasts, counter-screen, dose response (AID 2010).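 Note: cells exposed to compound for about 90 hours before reading.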 In kind it is functional, cell-based.
A short description of assay [13]: luciferase reporter signal suppression in cells – H4 neuroglioma cells, luminescence, dose response (AID 1990). Format: functional, cell-based.
Assay [14] can be described thus: alpha-synuclein stem-loop luciferase translation blockers – H4 neuroglioma cells, luminescence, confirmation (AID 1988). Format: functional, cell-based.

Regarding `C[C@H]1CN([C@@H](C)CO)C(=O)CCCn2nncc2CO[C@@H]1CN(C)C(=O)Nc1ccc(N2CCCCC2)cc1`, the AC50 in assay [1] is > 39 µM (inactive). Regarding `Cc1ccc(C)c(S(=O)(=O)N2CCN(C(=O)c3ccccc3Cc3ccccc3)CC2)c1`, the CC50 in assay [2] was 22.6 µM (active).

Take `CC(C)[C@H](CO)N(Cc1cccc(F)c1)c1nc(Nc2cccc(Cl)c2)c2ncn(C(C)C)c2n1`: the CC50 in assay [3] is > 40 µM (active).

For `Cc1c(C(=O)N/N=C/c2ccccc2)[nH]c2c([N+](=O)[O-])cccc12`, the EC50 in the assay with BJ [4] was 0.776 µM (active); with BJ [5], 73.1 µM (inconclusive); in the assay with BJ [6] it was 0.708 µM (inconclusive); in assay [7] it was 27.1 µM (inconclusive). For `COc1cccc(C(=O)N2CCN(C3CCCCC3)CC2)c1`, the IC50 in assay [8] is 142 µM (active).

Take `CCCNC(=O)c1cc2c(c(-c3cccc(-c4cc5ccccc5o4)c3)n1)[C@@H](CCO)N(C(=O)NC(C)C)C2`: in assay [1], the AC50 was 4.15 µM (active).

Take `CCOC(=O)c1nnc(-c2ccc(C)cc2)nc1Oc1ccccc1Cl`: in assay [2], the CC50 was 21.3 µM (active).

On to `CCCCn1c(N)c(N(CC(C)C)C(=O)Cc2ccc(S(=O)(=O)N3CCOCC3)s2)c(=O)[nH]c1=O`, for which the EC50 in assay [9] is 6.11 µM (active).

In the case of `COc1cc(CNc2ccc(N3CCN(C(C)=O)CC3)cc2)ccc1OCc1ccccc1`, the IC50 in assay [8] was 12.8 µM (active). In the case of `Cc1ccc(/C=C/C(=O)c2ccc([N+](=O)[O-])o2)cc1`, the EC50 was 4.07 µM (active) in assay [10], 8.82 µM (active) on Streptokinase A and 14.2 µM (active) with Streptococcus. The AC50 in the assay with INS1 is 5.65 µM (active).

As to `CN(C)/C=C1/C=C(c2ccccc2)OC1=O`, the IC50 in assay [8] is 52.1 µM (active). For the molecule `CCS(=O)(=O)N1CCCCN2[C@H](CO)[C@H](c3ccc(C#Cc4ccccc4OC)cc3)[C@@H]2C1`, the AC50 in [1] is 8.09 µM (active).

For the molecule `COc1ccc(C#Cc2cccc(-c3nc(C(=O)N[C@@H]4CCN(Cc5ccccc5)C4)cc4c3[C@@H](CCO)N([S+]([O-])C(C)(C)C)C4)c2)cc1OC` (stereo partly specified), the AC50 in assay [1] was 3.58 µM (active). Turning to `COc1ccc(-c2cc(C(F)(F)F)nc(SCc3cccc(C(=O)O)c3)n2)cc1`, the CC50 in [2] is 22.2 µM (active). For the same molecule, the AC50 at Cytochrome P450 3A4 was 14.1 µM (inconclusive).

As for `CCOC(=O)c1nnc2cc(-c3ccccc3)nn2c1C`, the CC50 in assay [2] is > 50 µM (active). For the molecule `O=[N+]([O-])c1ncccc1Oc1nc(-c2cccnc2)nc2ccccc12`, in [3], the CC50 is > 40 µM (active). The IC50 in the assay “cells” is 1.15 µM (active). `Cc1nn(-c2ccccc2)c2c1C1(C(=O)Nc3ccccc31)N1C(=N2)Sc2ccccc21` (stereo unspecified): the CC50 in assay [2] was 18.4 µM (active). For the molecule `COC(=O)/C(=C\Nc1ccc(Cl)cc1Cl)NC(=O)c1ccc(OC)cc1`, the EC50 was 10 µM (inconclusive) in the assay on BJ [4], 57.7 µM (active) with BJ [5], 15.3 µM (inconclusive) with BJ [6] and 4.31 µM (active) in [7]. `COc1ccc2c3c(n(C)c2c1)[C@H](CO)N(C(=O)Nc1ccc(F)cc1)CC31CN(C(=O)NC2CCCC2)C1`: the AC50 in assay [1] was 5.8 µM (active). As to `CCOc1cc(/C=N/NC(=O)CN2CCCCC2)ccc1O`, in [8], the concentration for half-maximal inhibition (IC50) is 50.4 µM (active).

Turning to `Nc1ccc2nc(N)sc2c1`, the IC50 in assay [8] was 9.57 µM (active). For `CCCCCCC(=O)Nc1nc(C)c(-c2csc(Nc3ccccc3OC)n2)s1`, in assay [2], the CC50 is 15 µM (active).

`COc1ccc(C#Cc2ccc3c(c2)[C@H]2[C@H](CCN2C(=O)C2CCC2)[C@@H](CO)N3)cc1`: the AC50 in assay [1] is 3.22 µM (active). On to `O=c1cc(-c2ccccc2)oc2ccccc12` [FLAVONE], for which the CC50 in [2] was 34.2 µM (active). Regarding `COc1ccc(CNC(=O)c2cc3c(c(-c4cccc(-c5cccc(C#N)c5)c4)n2)[C@H](CCO)N([S@@+]([O-])C(C)(C)C)C3)cc1`, the AC50 in assay [1] was 3.46 µM (active).

Consider `O=C(Nc1nnc(-c2ccccc2)o1)c1cc(Cl)sc1Cl`, for which the EC50 in [9] was > 53 µM (inactive). Turning to `COc1cc(OC)cc(-c2cc3nc(C)c(CCC(=O)NC(C)CCc4ccco4)c(C)n3n2)c1` (stereo unspecified), the EC50 is 0.45 µM (active) in assay [11] and > 30 µM (not active) in [12]. Also, the CC50 in assay [3] was 31.8 µM (active). In the case of `Cc1ccc(NC(=O)CSc2nc3ccccc3c(=O)n2CCCN2CCCCC2)cc1Cl`, the EC50 in [11] was 2.29 µM (active); in assay [12], > 60 µM (inconclusive). Moreover, in assay [3], the CC50 was 14.4 µM (active). Turning to `COc1ccc2nc(-c3cccc(F)c3)cc(O)c2c1`, the EC50 with BJ [4] is 1.24 µM (active); with BJ [5] it was 1.41 µM (inconclusive); in the assay with BJ [6], 0.885 µM (active); in [7] it was 2.39 µM (inconclusive).

As for `Cc1ccc(C)c(OCC(O)CN2CCC(C)CC2)c1C` (stereo unspecified), the IC50 in assay [8] is 225 µM (active). For `CC(=O)Nc1cccc(C(=O)/C=C/c2ccc(/C=C/C(=O)c3cccc(NC(C)=O)c3)cc2)c1`, the EC50 is 5.89 µM (inconclusive) with BJ [4], > 150 µM (not active) in the assay with BJ [5], 3.93 µM (inconclusive) in the assay with BJ [6] and 5.45 µM (inconclusive) in [7].

Turning to `O=C(NCCN1CCN(c2cccc(Cl)c2)CC1)c1ccc(CSc2nc3cc[nH]cc-3n2)cc1`, the CC50 in assay [3] is > 40 µM (active).

For the molecule `COc1ccc(CCNC(=O)CC2(CC3=NS(=O)(=O)c4ccccc4N3)CCCC2)cc1OC`, the EC50 in [13] is 18.8 µM (active); in [14], > 120 µM (not active).

In the case of `O=C(Nc1cccc(-c2nnc(-c3ccco3)o2)c1)C(c1ccccc1)c1ccccc1`, the CC50 in assay [2] was 15.2 µM (active).

These data come from ChEMBL document CHEMBL1201862, “PubChem BioAssay data set” (2004).
